The text below walks through data of US12466784B2, “Analogs of pterostilbene amino acid bearing carbonates for treating a non-alcoholic fatty liver disease and nonalcoholic steatohepatitis” (APICAL MOLECULAR BIOTECH CO., LTD., priority 2020, dated 2025).

One data set deals with MCD diet NASH mice. Kind of data set: Serum AST and ALT of compounds treated-NASH mice (MCD diet). The data set is classed as in vivo, Male C57BL/6 mice. The method, then:
(§1) Animals and experimental protocol: Male C57BL/6 mice, 4 weeks of age, were purchased from Laboratory Animal Center (Taiwan, China) were maintained under the procedures and guidelines provided by the Institutional Animal Care and Use Committee of the Health Research Institutes (Taiwan, China). They were maintained with free access to pellet food and water in stainless-steel cages at a temperature of 21±2° C. with a 12 h light/dark cycle.
(§2) Mice were randomly divided into five groups and treated as follows: (1) MCD diet+PG/TPSG (2) MCD diet+100 mg/kg all compounds. After 28 days, animals were sacrificed for the collection of blood for determination of plasma ALT and AST concentrations, and liver samples for H&E stain.
(§3) After 28 days, animals were sacrificed for the collection of blood for determination of plasma ALT and AST concentrations, and liver samples for H&E stain.

Data set [1] is described as follows: In vitro stability in pH 1.2 solution (USP Gastric fluid without enzymes). The settings on record: 37° C.
Experimental: Sample collection: At 0, 0.17, 0.5, 1, 2, 4 and 6 h, 100 mL of aliquots were taken from the incubation mixture and placed into centrifuge tubes containing 100 μL of ice-cold acetonitrile and 1 μm internal standard where the reaction was terminated.
In data set [2] the test system is hepatic steatosis induced by MCD diet. Nature of the data set: Histological examination (H&E stain) of liver of MCD diet mice. The note with it: for Avg: average of Scores of the group; for Ballooning / Inflammation / Steastosis / Fibrosis / Steatosis: score per animal; for Scores: total score per animal; for Steatosis: in PG/TPSG (1:1). The data set is classed as in vivo, Male C57BL/6 mice. On the procedure: as §1, §2, §3

The mark [3] stands for this setting: MCD diet mice, 100 mg/kg oral (Table 2).
The mark [4] stands for this setting: MCD diet mice, 100 mg/kg oral (Table 4 study).
The mark [5] stands for this setting: MCD diet mice, 100 mg/kg oral, PG/TPSG (1:1).
Setting [6] is: MCD diet mice, 75 mg/kg oral, hydrochloride, 75 mg/kg.
The mark [7] stands for this setting: MCD diet mice, 100 mg/kg oral (Table 3 study).
[8] abbreviates: MCD diet mice, 100 mg/kg oral (Table 3 study), hydrochloride, 100 mg/kg.
The mark [9] stands for this setting: MCD diet mice, 150 mg/kg oral, hydrochloride, 150 mg/kg.
Where [10] appears, read: MCD diet mice, 100 mg/kg oral once daily, 5 times a week.
Where [11] appears, read: MCD diet mice, 100 mg/kg oral, PG/TPSG (1:1), hydrochloride, 100 mg/kg.
The mark [12] stands for this setting: sum of Scores of the 4 animals of the group, 100 mg/kg oral, PG/TPSG (1:1).
Where [13] appears, read: MCD diet mice, 100 mg/kg oral, PG/TPSG (1:1), 100 mg/kg.

Several values for one entry are separate records, joined by “and”; a condition that tells them apart may be missing. Identical values can stand only once.

As for “(E)-2-(2-amino-3-methylbutanamido)ethyl (4-(3,5-dimethoxystyryl)phenyl) carbonate hydrochloride [Compound 5c]”, the “Serum ALT (U/L)” value with MCD diet NASH mice (MCD diet mice, 75 mg/kg oral) worked out at 164.40 U/L; with MCD diet NASH mice (setting [4]), 92.60 U/L; in the data set on MCD diet NASH mice (setting [5]), 205.13 U/L; in the data set with MCD diet NASH mice (MCD diet mice, 150 mg/kg oral), 82.80 U/L. For the same compound, the “Serum AST (U/L)” value in the data set with MCD diet NASH mice (MCD diet mice, 75 mg/kg oral) is 275.00 U/L; in the data set on MCD diet NASH mice (setting [4]) it was 245.80 U/L; in the data set on MCD diet NASH mice (setting [5]), 274.00 U/L; in the data set with MCD diet NASH mice (MCD diet mice, 150 mg/kg oral), 192.00 U/L. In addition, the “effect on serum concentrations of AST and ALT, in words” value (from here on “effect on serum concentrations”) in the data set on MCD diet NASH mice (setting [3]) is “significantly inhibited the serum concentrations of AST and ALT”; in the data set with MCD diet NASH mice (MCD diet mice, 75, 100 and 150 mg/kg oral (Table 4)) it was “significantly inhibited the serum concentrations of AST and ALT with dose-dependent manners”. Besides, the “compound remaining in pH = 1.2 solution (%)” value (“compound remaining … (%)” for short) in data set [1] (Time 0 h) amounted to 100.0%; in data set [1] (Time 0.167 h), 88.5%; in data set [1] (Time 0.5 h) it was 93.2%; in data set [1] (Time 1 h), 96.0%; in data set [1] (Time 2 h), 91.7%; in data set [1] (Time 4 h), 97.4%. For the same compound, in data set [2] (MCD diet mice), the “anti-NASH/NAFLD activities, in words” value is “significant anti-NASH/NAFLD activities”. Also, the “effect on MCD diet-induced steatohepatitis (H&E staining), in words” value (shortened to “effect … (H&E staining), in words”) in data set [2] (MCD diet mice, 100 mg/kg oral) was “prevented MCD diet-induced steatohepatitis”. The “effect on MCD diet-induced steatohepatitis (H-E staining), in words” value in data set [2] (MCD diet mice, 75, 100 and 150 mg/kg oral (FIG. 1, Table 3)) was “prevented MCD diet-induced steatohepatitis”. In addition, the Avg is recorded as 6.2 in data set [2] (75 mg/kg oral), 4.2 in data set [2] (100 mg/kg oral (Table 3 study)) and 3.2 in data set [2] (150 mg/kg oral). The Ballooning is 2 in data set [2] (MCD diet mice, 75 mg/kg oral); 2 (3×) and 1 (2×) in data set [2] (setting [8]); 1 (4×) and 2 in data set [2] (setting [9]). Moreover, the Inflammation is recorded as 1 in data set [2] (MCD diet mice, 75 mg/kg oral); 0 in data set [2] (setting [7]); 0 in data set [2] (MCD diet mice, 150 mg/kg oral). Moreover, the Steastosis was 3 in data set [2] (MCD diet mice, 75 mg/kg oral once daily, 5 times a week); 3 (3×) and 2 (2×) in data set [2] (MCD diet mice, 100 mg/kg oral once daily, 5 times a week (Table 3 study), hydrochloride, 100 mg/kg); 2 (3×) and 1 and 3 in data set [2] (MCD diet mice, 150 mg/kg oral once daily, 5 times a week, hydrochloride, 150 mg/kg). For the same compound, the Fibrosis in data set [2] (setting [6]) is 1 and 0 (4×); in data set [2] (setting [7]) it was 0; in data set [2] (MCD diet mice, 150 mg/kg oral), 0. The Sum in data set [2] (sum of Scores of the 5 animals, 75 mg/kg oral) amounted to 31; in data set [2] (sum of Scores of the 5 animals, 100 mg/kg oral (Table 3 study)), 21; in data set [2] (sum of Scores of the 5 animals, 150 mg/kg oral) it was 16. For the same compound, the Scores in data set [2] (setting [6]) was 7 and 6 (4×); in data set [2] (setting [8]) it was 5 (3×) and 3 (2×); in data set [2] (setting [9]), 3 (3×) and 2 and 5.

With `COc1cc(/C=C/c2ccc(OC(=O)OCCNC(=O)CN)cc2)cc(OC)c1.Cl` [Compound 5a, (E)-2-(2-aminoacetamido)ethyl (4-(3,5-dimethoxystyryl)phenyl) carbonate hydrochloride], in the data set with MCD diet NASH mice (setting [3]), the “effect on serum concentrations” value was “significantly inhibited the serum concentrations of AST and ALT”. Moreover, in the data set with MCD diet NASH mice (setting [5]), the “Serum ALT (U/L)” value came out at 251.75 U/L. In addition, the “Serum AST (U/L)” value in the data set on MCD diet NASH mice (setting [5]) turned out to be 283.00 U/L. For the same compound, the “compound remaining … (%)” value stood at 100.0% in data set [1] (Time 0 h); 104.6% in data set [1] (Time 0.167 h); 104.0% in data set [1] (Time 0.5 h); 110.2% in data set [1] (Time 1 h); 101.7% in data set [1] (Time 2 h); 103.5% in data set [1] (Time 4 h). Besides, the “effect … (H&E staining), in words” value in data set [2] (MCD diet mice, 100 mg/kg oral) was “prevented MCD diet-induced steatohepatitis”. Besides, the Avg in data set [2] (100 mg/kg oral, PG/TPSG (1:1)) is listed as 7.75. In addition, the Steatosis in data set [2] (setting [10]) was determined as 3. The same compound had a Ballooning in data set [2] (setting [5]) of 2. In data set [2] (setting [5]), this compound had a Fibrosis of 0. Moreover, the Inflammation in data set [2] (setting [11]) is 3 (3×) and 2. Also, in data set [2] (setting [12]), the Sum stood at 31. The Scores in data set [2] (setting [11]) is 8 (3×) and 7.

In the case of `COc1cc(/C=C/c2ccc(OC(=O)OCCNC(=O)C(N)C(C)C)cc2)cc(OC)c1.O=C(O)c1cccnc1` (stereo not shown) [Compound 5w, (E)-2-(2-amino-3-methylbutanamido)ethyl (4-(3,5-dimethoxystyryl)phenyl) carbonate nicotinate], the “Serum ALT (U/L)” value in the data set on MCD diet NASH mice (setting [5]) was found to be 214.50 U/L. Further, the “Serum AST (U/L)” value with MCD diet NASH mice (setting [5]) stood at 236.75 U/L. The “compound remaining … (%)” value in data set [1] (Time 0 h) is reported as 100.0%; in data set [1] (Time 0.167 h), 128.3%; in data set [1] (Time 0.5 h) it was 113.4%; in data set [1] (Time 1 h) it was 123.9%; in data set [1] (Time 2 h) it was 128.5%; in data set [1] (Time 4 h), 122.4%. The “effect … (H&E staining), in words” value in data set [2] (MCD diet mice, 100 mg/kg oral) is “prevented MCD diet-induced steatohepatitis”. This compound also showed an Avg in data set [2] (100 mg/kg oral, PG/TPSG (1:1)) of 7.50. In addition, the Steatosis in data set [2] (MCD diet mice, 100 mg/kg oral once daily, 5 times a week, 100 mg/kg) is 3 (3×) and 2. In addition, the Ballooning in data set [2] (setting [5]) was determined as 2. Further, in data set [2] (setting [5]), the Fibrosis is 0. The Inflammation in data set [2] (setting [13]) was 2 and 3 (3×). Also, in data set [2] (setting [12]), the Sum was 30. Also, the Scores in data set [2] (setting [13]) was 7 (2×) and 8 (2×).

Turning to `COc1cc(/C=C/c2ccc(OC(=O)OCCNC(=O)CN)cc2)cc(OC)c1.O=C(O)c1cccnc1` [Compound 5v, (E)-2-(2-aminoacetamido)ethyl (4-(3,5-dimethoxystyryl)phenyl) carbonate nicotinate], the “Serum ALT (U/L)” value in the data set with MCD diet NASH mice (setting [5]) came to 430.13 U/L. Besides, the “Serum AST (U/L)” value in the data set on MCD diet NASH mice (setting [5]) was 610.25 U/L. Moreover, the “compound remaining … (%)” value in data set [1] (Time 0 h) came out at 100.0%; in data set [1] (Time 0.167 h), 100.6%; in data set [1] (Time 0.5 h) it was 106.8%; in data set [1] (Time 1 h), 101.0%; in data set [1] (Time 2 h) it was 103.0%; in data set [1] (Time 4 h), 106.9%. Further, in data set [1] (Time 6 h), the “compound remaining … (%)” value is 84.8%. In data set [2] (100 mg/kg oral, PG/TPSG (1:1)), this compound showed an Avg of 8.00. In data set [2] (setting [10]), this compound came in with a Steatosis of 3. Besides, the Ballooning in data set [2] (setting [5]) is on record as 2. Also, the Fibrosis in data set [2] (setting [5]) is listed as 0. In data set [2] (setting [5]), this compound had an Inflammation of 3. In data set [2] (setting [12]), the Sum was 32. This compound yielded a Scores in data set [2] (setting [5]) of 8.

Consider `COc1cc(/C=C/c2ccc(OC(=O)OCCNC(=O)C(C)N)cc2)cc(OC)c1.Cl` (stereo not shown) [Compound 5b, (E)-2-(2-aminopropanamido)ethyl (4-(3,5-dimethoxystyryl)phenyl) carbonate hydrochloride], for which, in the data set with MCD diet NASH mice (setting [3]), the “effect on serum concentrations” value is “significantly inhibited the serum concentrations of AST and ALT”. In the data set with MCD diet NASH mice (setting [5]), the “Serum ALT (U/L)” value was 180.88 U/L and the “Serum AST (U/L)” value was found to be 235.25 U/L. In addition, the “effect … (H&E staining), in words” value in data set [2] (MCD diet mice, 100 mg/kg oral) was “prevented MCD diet-induced steatohepatitis”. Moreover, in data set [2] (100 mg/kg oral, PG/TPSG (1:1)), the Avg was found to be 4.5. Also, the Steatosis in data set [2] (MCD diet mice, 100 mg/kg oral once daily, 5 times a week, hydrochloride, 100 mg/kg) is 2 (3×) and 3. Further, the Fibrosis in data set [2] (setting [5]) worked out at 0. Moreover, in data set [2] (setting [11]), the Ballooning was 1 (3×) and 2; the Inflammation was 2 and 1 (3×); the Scores is 5 and 4 (2×) and 6. The Sum in data set [2] (setting [12]) worked out at 19.
